This assay concerns the target T4 polynucleotide kinase (T4 PNK) (Tequatrovirus T4, UniProt P06855). Type of assay: biochemical.

Structures are written as SMILES.

T4 polynucleotide kinase (T4 PNK), sequence (P06855 whole entry): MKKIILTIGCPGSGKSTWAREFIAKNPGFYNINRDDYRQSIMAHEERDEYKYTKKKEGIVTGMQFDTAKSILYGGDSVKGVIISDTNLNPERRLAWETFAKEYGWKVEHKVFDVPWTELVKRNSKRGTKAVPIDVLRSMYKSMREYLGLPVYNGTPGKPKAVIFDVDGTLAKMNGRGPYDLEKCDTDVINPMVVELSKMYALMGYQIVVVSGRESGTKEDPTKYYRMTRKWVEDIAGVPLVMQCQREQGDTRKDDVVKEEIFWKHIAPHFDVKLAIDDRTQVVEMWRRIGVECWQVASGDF

As to `O=S(=O)(O)O` [(NH4)2SO4], the IC50 came out at 18 mM.

For the origin of these results see publication PMC9090566 (RSC Advances, 2018).
